According to patent publication US20260285855A1, “HETEROARYL DERIVATIVES AS DDRS INHIBITORS” (CHIESI FARMACEUTICI S.P.A., priority 2023, published 2026):

How the values were obtained:
DDR1 = target: T1, DDR1 (Homo sapiens, UniProt Q08345); assay: LanthaScreen Europium Kinase Binding assay, DDR1; details: 5 nM DDR1, 20 nM Kinase Tracer 178, 1 h at rt; Ki from IC50 by Cheng-Prusoff; read-out: Ki DDR1
T1 construct: purchased Carna Biosciences
Experimental: (§1) DDR1 and DDR2 binding assays were performed using Life Technologies LanthaScreen™ Europium Kinase Binding assay. […] IC50 values were determined in GraphPad Prism 7.0 software, using 4 parameter model: log (inhibitor) vs. response. IC50 values were converted in Ki using the Cheng-Prusoff equation (Ki-IC50/(1+ [Tracer]/Kd).

DDR2 = target: T2, DDR2 (Homo sapiens, UniProt Q16832); assay: LanthaScreen Europium Kinase Binding assay, DDR2; details: 5 nM DDR2, 10 nM Kinase Tracer 178, 1 h at rt; Ki from IC50 by Cheng-Prusoff; read-out: Ki DDR2
T2 construct: purchased Life Technologies
T2 sequence (Q16832 22-855): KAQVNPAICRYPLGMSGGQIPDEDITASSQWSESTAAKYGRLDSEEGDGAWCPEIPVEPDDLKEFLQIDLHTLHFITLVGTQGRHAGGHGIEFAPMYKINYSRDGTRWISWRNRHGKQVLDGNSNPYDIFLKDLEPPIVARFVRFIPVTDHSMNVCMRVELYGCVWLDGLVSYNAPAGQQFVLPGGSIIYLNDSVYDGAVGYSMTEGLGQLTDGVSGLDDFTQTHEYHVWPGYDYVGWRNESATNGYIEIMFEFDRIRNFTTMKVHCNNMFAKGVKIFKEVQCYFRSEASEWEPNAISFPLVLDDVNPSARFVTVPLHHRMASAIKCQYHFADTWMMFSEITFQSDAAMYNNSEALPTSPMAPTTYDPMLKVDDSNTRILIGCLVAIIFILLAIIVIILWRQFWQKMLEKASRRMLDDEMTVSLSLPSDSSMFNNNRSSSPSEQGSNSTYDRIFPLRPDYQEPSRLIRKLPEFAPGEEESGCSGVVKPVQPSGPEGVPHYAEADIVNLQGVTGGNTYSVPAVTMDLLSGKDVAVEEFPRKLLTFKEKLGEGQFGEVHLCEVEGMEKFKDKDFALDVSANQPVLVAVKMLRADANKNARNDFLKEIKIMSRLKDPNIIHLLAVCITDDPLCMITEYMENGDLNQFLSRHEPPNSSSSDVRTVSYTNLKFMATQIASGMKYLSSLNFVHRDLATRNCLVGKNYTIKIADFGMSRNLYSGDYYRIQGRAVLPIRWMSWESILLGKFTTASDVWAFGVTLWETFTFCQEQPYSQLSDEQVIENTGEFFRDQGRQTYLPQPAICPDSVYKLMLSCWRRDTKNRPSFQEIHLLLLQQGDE
Experimental: as §1

T1 sequence (Q08345 19-913): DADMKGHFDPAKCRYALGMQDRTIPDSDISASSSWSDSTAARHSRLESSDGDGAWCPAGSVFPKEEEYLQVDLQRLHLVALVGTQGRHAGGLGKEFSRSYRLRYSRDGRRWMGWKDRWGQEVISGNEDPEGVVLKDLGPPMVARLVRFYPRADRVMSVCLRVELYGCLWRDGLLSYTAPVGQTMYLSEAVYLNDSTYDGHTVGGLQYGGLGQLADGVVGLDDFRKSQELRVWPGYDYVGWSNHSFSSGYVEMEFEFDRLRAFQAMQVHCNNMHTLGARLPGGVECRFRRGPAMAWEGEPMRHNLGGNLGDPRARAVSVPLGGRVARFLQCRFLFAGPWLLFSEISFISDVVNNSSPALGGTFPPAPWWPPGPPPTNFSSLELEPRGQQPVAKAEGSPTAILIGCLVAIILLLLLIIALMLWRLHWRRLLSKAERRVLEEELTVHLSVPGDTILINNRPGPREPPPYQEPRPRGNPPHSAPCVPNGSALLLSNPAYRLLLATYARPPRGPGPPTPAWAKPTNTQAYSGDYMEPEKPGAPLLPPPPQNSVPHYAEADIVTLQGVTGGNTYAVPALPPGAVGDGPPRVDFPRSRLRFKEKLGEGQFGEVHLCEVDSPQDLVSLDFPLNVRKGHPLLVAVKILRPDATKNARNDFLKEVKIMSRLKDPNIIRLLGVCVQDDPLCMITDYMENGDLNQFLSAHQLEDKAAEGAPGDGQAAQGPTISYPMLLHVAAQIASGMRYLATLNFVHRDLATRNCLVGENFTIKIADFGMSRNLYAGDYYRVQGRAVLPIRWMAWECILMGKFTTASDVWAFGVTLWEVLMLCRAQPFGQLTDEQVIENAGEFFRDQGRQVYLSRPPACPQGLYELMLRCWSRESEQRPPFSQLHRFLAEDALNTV

| SMILES | Ki (DDR1) [nM] | Ki (DDR2) [nM] |
| --- | --- | --- |
| CC(C)(C)c1cc(NC(=O)NC2CC3(C2)CN(C(=O)c2cnn4ccncc24)C3)no1 [Example 18, 1-(5-(tert-butyl)isoxazol-3-yl)-3-(2-(pyrazolo[1,5-a]pyrazine-3-carbonyl)-2-azaspiro[3.3]heptan-6-yl)urea] | 5 to 25 | 25 to 100 |
| Cn1ccn2ncc(C(=O)N3CC4(CC(NC(=O)Nc5cc(C(F)(F)F)ccc5F)C4)C3)c12 [Example 123, 1-(2-fluoro-5-(trifluoromethyl)phenyl)-3-(2-(1-methyl-1H-imidazo[1,2-b]pyrazole-7-carbonyl)-2-azaspiro[3.3]heptan-6-yl)urea] | < 5 | 5 to 25 |
| O=C(Nc1cc(C(F)(F)F)ccn1)NC1CC2(C1)CN(C(=O)c1ncnc3ccsc13)C2 [Example 90, 1-(2-(thieno[3,2-d]pyrimidine-4-carbonyl)-2-azaspiro[3.3]heptan-6-yl)-3-(4-(trifluoromethyl)pyridin-2-yl)urea] | < 5 | < 5 |
| CN(C(=O)Nc1cncc(C(F)(F)F)c1)C1CC2(C1)CN(C(=O)c1cnn3cc(-c4cccnc4)ccc13)C2 [Example 230, 1-methyl-1-(2-(6-(pyridin-3-yl)pyrazolo[1,5-a]pyridine-3-carbonyl)-2-azaspiro[3.3]heptan-6-yl)-3-(5-(trifluoromethyl)pyridin-3-yl)urea] | < 5 | 5 to 25 |
| Cn1ccn2ncc(C(=O)N3CC4(CC(NC(=O)Nc5cccc(SC(F)(F)F)c5)C4)C3)c12 [Example 125, 1-(2-(1-methyl-1H-imidazo[1,2-b]pyrazole-7-carbonyl)-2-azaspiro[3.3]heptan-6-yl)-3-(3-((trifluoromethyl)thio)phenyl) urea] | < 5 | < 5 |
| CN(C(=O)Nc1cccc(C(F)(F)F)c1)C1CC2(C1)CN(C(=O)c1ccnc3[nH]ccc13)C2 [Example 248, 1-(2-(1H-pyrrolo[2,3-b]pyridine-4-carbonyl)-2-azaspiro[3.3]heptan-6-yl)-1-methyl-3-(3-(trifluoromethyl)phenyl)urea] | < 5 | 5 to 25 |
| O=C(Nc1cccc(OC(F)(F)F)c1)NC1CC2(C1)CN(C(=O)c1cnn3ccsc13)C2 [Example 21, 1-(2-(pyrazolo[5,1-b]thiazole-7-carbonyl)-2-azaspiro[3.3]heptan-6-yl)-3-(3-(trifluoromethoxy)phenyl)urea] | < 5 | < 5 |
| CN(C(=O)Nc1cc(OC(F)(F)F)ccn1)C1CC2(C1)CN(C(=O)c1cnn3ccn(C)c13)C2 [Example 105, 1-methyl-1-(2-(1-methyl-1H-imidazo[1,2-b]pyrazole-7-carbonyl)-2-azaspiro[3.3]heptan-6-yl)-3-(4-(trifluoromethoxy)pyridin-2-yl)urea] | < 5 | 5 to 25 |
| O=C(Nc1cccc(C(F)(F)F)c1)NC1CC2(C1)CN(c1cnc3[nH]ncc3c1)C2 [Example 138, 1-(2-(1H-pyrazolo[3,4-b]pyridine-5-yl)-2-azaspiro[3.3]heptan-6-yl)-3-(3-(trifluoromethyl)phenyl)urea] | < 5 | < 5 |
| COc1c(CO)cc(OC(F)(F)F)cc1NC(=O)NC1CC2(C1)CN(C(=O)c1cnn3ccn(C)c13)C2 [Example 78, 1-(3-(hydroxymethyl)-2-methoxy-5-(trifluoromethoxy)phenyl)-3-(2-(1-methyl-1H-imidazo[1,2-b]pyrazole-7-carbonyl)-2-azaspiro[3.3]heptan-6-yl)urea] | < 5 | 25 to 100 |
| O=C(Nc1cccc(C(F)(F)F)c1)NC1CC2(C1)CN(C(=O)c1ccnc3[nH]ncc13)C2 [Example 93, 1-(2-(1H-pyrazolo[3,4-b]pyridine-4-carbonyl)-2-azaspiro[3.3]heptan-6-yl)-3-(3-(trifluoromethyl)phenyl)urea] | < 5 | < 5 |
| CC(C)(c1cc(NC(=O)OC2CC3(C2)CN(C(=O)c2cnn4ccsc24)C3)no1)C(F)(F)F [Example 293, 2-(pyrazolo[5,1-b]thiazole-7-carbonyl)-2-azaspiro[3.3]heptan-6-yl(5-(1,1,1-trifluoro-2-methylpropan-2-yl)isoxazol-3-yl)carbamate] | < 5 | < 5 |
| O=C(Nc1cccc(C(F)(F)F)c1)NC1CC2(C1)CN(C(=O)c1cnn3ccc(N4CCC(O)C4)cc13)C2 (stereo not drawn) [Example 185, 1-(2-(5-(3-hydroxypyrrolidin-1-yl)pyrazolo[1,5-a]pyridine-3-carbonyl)-2-azaspiro[3.3]heptan-6-yl)-3-(3-(trifluoromethyl)phenyl)urea] | < 5 | < 5 |
| O=C(Nc1cncc(C(F)(F)F)c1)OC1CC2(C1)CN(C(=O)c1cnn3ccsc13)C2 [Example 273, 2-(pyrazolo[5,1-b]thiazole-7-carbonyl)-2-azaspiro[3.3]heptan-6-yl(5-(trifluoromethyl)pyridin-3-yl)carbamate] | < 5 | < 5 |
| CN(C(=O)Nc1cc(C(F)(F)F)ccn1)C1CC2(C1)CN(C(=O)c1cnn3ccsc13)C2 [Example 217, 1-methyl-1-(2-(pyrazolo[5,1-b]thiazole-7-carbonyl)-2-azaspiro[3.3]heptan-6-yl)-3-(4-(trifluoromethyl)pyridin-2-yl)urea] | < 5 | 5 to 25 |
| COc1cc(C(F)(F)F)cc(NC(=O)N(C)C2CC3(C2)CN(C(=O)c2cnn4ccn(C)c24)C3)n1 [Example 256, 3-(6-methoxy-4-(trifluoromethyl)pyridin-2-yl)-1-methyl-1-(2-(1-methyl-1H-imidazo[1,2-b]pyrazole-7-carbonyl)-2-azaspiro[3.3]heptan-6-yl)urea] | < 5 | 5 to 25 |
| Cn1ccn2ncc(C(=O)N3CC4(CC(NC(=O)Nc5cccc(C(F)(F)C(F)(F)F)c5)C4)C3)c12 [Example 127, 1-(2-(1-methyl-1H-imidazo[1,2-b]pyrazole-7-carbonyl)-2-azaspiro[3.3]heptan-6-yl)-3-(3-(perfluoroethyl)phenyl)urea] | < 5 | < 5 |
| O=C(Nc1cccc(C(F)(F)F)c1)NC1CC2(C1)CN(C(=O)c1ccnc3ccsc13)C2 [Example 137, 1-(2-(thieno[3,2-b]pyridine-7-carbonyl)-2-azaspiro[3.3]heptan-6-yl)-3-(3-(trifluoromethyl)phenyl)urea] | < 5 | < 5 |
| COc1ccc(OC(F)(F)F)cc1NC(=O)NC1CC2(C1)CN(C(=O)c1ccnc3ccsc13)C2 [Example 48, 1-(2-methoxy-5-(trifluoromethoxy)phenyl)-3-(2-(thieno[3,2-b]pyridine-7-carbonyl)-2-azaspiro[3.3]heptan-6-yl)urea] | < 5 | 5 to 25 |
| O=C(CC1CC2(C1)CN(C(=O)c1cnc3ccccn13)C2)Nc1cccc(C(F)(F)F)c1 [Example 28, 2-(2-(imidazo[1,2-a]pyridine-3-carbonyl)-2-azaspiro[3.3]heptan-6-yl)-N-(3-(trifluoromethyl)phenyl)acetamide] | < 5 | 5 to 25 |
| CN(C(=O)Nc1cc(C(C)(C)C)on1)C1CC2(C1)CN(C(=O)c1cnn3ccn(C)c13)C2 [Example 222, 3-(5-(tert-butyl)isoxazol-3-yl)-1-methyl-1-(2-(1-methyl-1H-imidazo[1,2-b]pyrazole-7-carbonyl)-2-azaspiro[3.3]heptan-6-yl)urea] | 5 to 25 | 25 to 100 |
